# Measurements as given in patent US9406887B2, “Solution, organic semiconductor material, organic semiconductor film, electronic device and electronic equipment” (RICOH COMPANY, LTD., priority 2013, dated 2016).
# How the values were obtained:
# [1] = Solubility of the compound in an organic solvent (saturated solution at 25° C. after reflux); type: physicochemical; conditions: cooled to 25° C. after reflux; for solubility in CHCl3: chloroform
# Description: After the compound was added to […] of an organic solvent such as toluene, THF and chloroform until insoluble residue remained, the mixture was stirred for 10 min while the organic solvent was refluxed with heat. Next, after the mixture was cooled to have a temperature of 25° C., it was stirred for 1 hr. Further, after quietly put for 16 hrs, the top clear layer of the mixture was filtered through a PTFE filter having a hole diameter of 0.2 μm to prepare a saturated solution. Next, the solution was dried under reduced pressure and the solubility of the compound in an organic solvent was measured. The evaluation standard of the solubility of the compound in an organic solvent is as follows.
# [2] = Weight variation (TG) on heating, thermal analyzer EXSTRA6200; type: physicochemical; conditions: heated to 250° C. at 20° C./min, nitrogen atmosphere
# Description: After 50 mg (0.10 mmol) of the compound having the formula (1-1) were placed in an aluminum pan, they were heated to have a temperature of 250° C. at 20° C./min and weight variation (TG) thereof was measured using a thermal analyzer EXSTRA6200 from Seiko Instruments, Inc. in a nitrogen atmosphere. Thus, 29 mg (yield rate quant.) of a dark purple solid compound having the formula (2-1) was obtained.
solubility in THF [1],solubility in CHCl3 [1],solubility in Toluene [1],weight reduction (TG) [2] [%],Structure (SMILES)
Excellent (not less than 0.5% by weight),Excellent (not less than 0.5% by weight),Excellent (not less than 0.5% by weight),34.6,CC(C)(C)OC(=O)N1C(=O)C2=C(c3cccs3)N(C(=O)OC(C)(C)C)C(=O)C2=C1c1cccs1 [formula (1-1)]
Excellent (not less than 0.5% by weight),Excellent (not less than 0.5% by weight),Excellent (not less than 0.5% by weight),19.8,CCCCCCc1ccc(-c2ccc(-c3ccc(C4=C5C(=O)N(C(=O)OC(C)(C)C)C(c6ccc(-c7ccc(-c8ccc(CCCCCC)s8)s7)s6)=C5C(=O)N4C(=O)OC(C)(C)C)s3)s2)s1 [formula (1-16)]
Excellent (not less than 0.5% by weight),Excellent (not less than 0.5% by weight),Excellent (not less than 0.5% by weight),23.1,CCCCCCc1csc(-c2ccc(C3=C4C(=O)N(C(=O)OC(C)(C)C)C(c5ccc(-c6cc(CCCCCC)cs6)s5)=C4C(=O)N3C(=O)OC(C)(C)C)s2)c1 [formula (1-17)]
Excellent (not less than 0.5% by weight),Excellent (not less than 0.5% by weight),Excellent (not less than 0.5% by weight),23.1,CCCCCCOc1ccc(-c2ccc(C3=C4C(=O)N(C(=O)OC(C)(C)C)C(c5ccc(-c6ccc(OCCCCCC)cc6)s5)=C4C(=O)N3C(=O)OC(C)(C)C)s2)cc1 [formula (1-18)]
Poor (less than 0.005% by weight),Poor (less than 0.005% by weight),Poor (less than 0.005% by weight),,O=C1NC(c2cccs2)=C2C(=O)NC(c3cccs3)=C12 [formula (2-1)]

Structure (SMILES),solubility in THF [1],solubility in CHCl3 [1],solubility in Toluene [1],weight reduction (TG) [2] [%]
CC(C)(C)OC(=O)N1C(=O)C2=C(c3ccc(Br)s3)N(C(=O)OC(C)(C)C)C(=O)C2=C1c1ccc(Br)s1 [formula (1-4)],Excellent (not less than 0.5% by weight),Excellent (not less than 0.5% by weight),Good (not less than 0.1% and less than 0.5% by weight),31.6
CCCCCCc1ccc(-c2ccc(C3=C4C(=O)N(C(=O)OC(C)(C)C)C(c5ccc(-c6ccc(CCCCCC)s6)s5)=C4C(=O)N3C(=O)OC(C)(C)C)s2)s1 [formula (1-12)],Good (not less than 0.1% and less than 0.5% by weight),Excellent (not less than 0.5% by weight),Excellent (not less than 0.5% by weight),23.8
CCCCCCCCCCCCOc1cc(-c2ccc(-c3ccc(C4=C5C(=O)N(C(=O)OC(C)(C)C)C(c6ccc(-c7ccc(-c8cc(OCCCCCCCCCCCC)c(OCCCCCCCCCCCC)c(OCCCCCCCCCCCC)c8)s7)s6)=C5C(=O)N4C(=O)OC(C)(C)C)s3)s2)cc(OCCCCCCCCCCCC)c1OCCCCCCCCCCCC [formula (1-25)],Excellent (not less than 0.5% by weight),Excellent (not less than 0.5% by weight),Excellent (not less than 0.5% by weight),10.3
CCCCCCCCCCCCOc1cc(-c2ccc(-c3ccc(-c4ccc(C5=C6C(=O)N(C(=O)OC(C)(C)C)C(c7ccc(-c8ccc(-c9ccc(-c%10cc(OCCCCCCCCCCCC)c(OCCCCCCCCCCCC)c(OCCCCCCCCCCCC)c%10)s9)s8)s7)=C6C(=O)N5C(=O)OC(C)(C)C)s4)s3)s2)cc(OCCCCCCCCCCCC)c1OCCCCCCCCCCCC [formula (1-27)],Good (not less than 0.1% and less than 0.5% by weight),Excellent (not less than 0.5% by weight),Good (not less than 0.1% and less than 0.5% by weight),9.4
